This note sets out measurements from ChEMBL document CHEMBL3044901, “Synthesis and insecticidal activity of N-oxydihydropyrroles: 4-hydroxy-3-mesityl-5,5-dimethyl derivatives with various substituents at the 1-position” (Biosci Biotechnol Biochem, 2002).

Structures are written as SMILES.

The mortality is the percentage killed.

One data set has as its system Cucumis sativus. Nature of the data set: Phytotoxicity against Cucumis sativus (cucumber) exposed to compound spraying at […] measured 7 days post compound treatment by post-emergence glasshouse test. Type of data set: organism-based. As to conditions: in vivo, other, 168 h.
For another data set, the system named is Oryza sativa. Nature of the data set: Phytotoxicity against Oryza sativa exposed to compound spraying at […] measured 7 days post compound treatment by post-emergence glasshouse test. Type of data set: organism-based. As to conditions: in vivo, other, 168 h.
Data set [1] has as its system Myzus persicae. Nature of the data set: Insecticidal activity against Myzus persicae (green peach aphid) infested Brassica campestris stems followed by leaf exposure to test compound spraying assessed as insect mortality at 1 ppm measured 5 days post compound treatment by contact exposure test. The conditions noted are these: 120 h. Type of data set: functional.
Data set [2] deals with Nilaparvata lugens. Nature of the data set: Insecticidal activity against Nilaparvata lugens (brown planthopper) third-instar larvae reared on rice seedlings assessed as insect mortality at 10 ppm measured 5 days post compound treatment by systemic exposure test. Type of data set: functional. As to conditions: 120 h.
The subject of data set [3] is Myzus persicae. Nature of the data set: Insecticidal activity against Myzus persicae (green peach aphid) infested Brassica campestris stems followed by leaf exposure to test compound spraying assessed as insect mortality at 10 ppm measured 5 days post compound treatment by contact exposure test. Type of data set: functional. As to conditions: 120 h.
Data set [4] deals with Myzus persicae. Nature of the data set: Insecticidal activity against Myzus persicae (green peach aphid) infested Brassica campestris stems followed by cut stem exposure to test compound assessed as insect mortality at 0.1 ppm measured 5 days post compound treatment by systemic exposure test. Type of data set: functional. As to conditions: 120 h.
The test system of data set [5] is Myzus persicae. Nature of the data set: Insecticidal activity against Myzus persicae (green peach aphid) infested Brassica campestris stems followed by cut stem exposure to test compound assessed as insect mortality at 1 ppm measured 5 days post compound treatment by systemic exposure test. As to conditions: 120 h. Type of data set: functional.
Data set [6] has as its system Nilaparvata lugens. Nature of the data set: Insecticidal activity against Nilaparvata lugens (brown planthopper) third-instar larvae contacted with rice stems pre-exposed to compound assessed as insect mortality at 1 ppm measured 5 days post insect release by contact exposure test. Type of data set: functional. The conditions noted are these: 120 h.
The subject of data set [7] is Nilaparvata lugens. Nature of the data set: Insecticidal activity against Nilaparvata lugens (brown planthopper) third-instar larvae contacted with rice stems pre-exposed to compound assessed as insect mortality at 10 ppm measured 5 days post insect release by contact exposure test. The format is functional. The conditions noted are these: 120 h.
Data set [8] deals with Nilaparvata lugens. Nature of the data set: Insecticidal activity against Nilaparvata lugens (brown planthopper) third-instar larvae reared on rice seedlings assessed as insect mortality at 1 ppm measured 5 days post compound treatment by systemic exposure test. Type of data set: functional. The conditions noted are these: 120 h.

Turning to `COCCON1C(=O)C(c2c(C)cc(C)cc2C)=C(O)C1(C)C`, the Phytotoxicity stood at 60% with Cucumis sativus and 90% with Oryza sativa. The mortality at 1 ppm with Myzus persicae [1] amounted to 0%; in the data set on Myzus persicae [5], 100%; in the data set with Nilaparvata lugens [6], 30%; in the data set with Nilaparvata lugens [8] it was 90%. Further, the mortality at 10 ppm with Nilaparvata lugens [2], with Myzus persicae [3] and with Nilaparvata lugens [7] was 90% in each case. The mortality at 0.1 ppm in the data set with Myzus persicae [4] turned out to be 100%.

On to `Cc1cc(C)c(C2=C(OC(=O)CC(C)(C)C)C(C)(C)N(O)C2=O)c(C)c1`, for which the Phytotoxicity in the data set with Cucumis sativus is on record as 0%; in the data set on Oryza sativa it was 30%. Moreover, the mortality at 1 ppm in the data set on Myzus persicae [1] stood at 0%; in the data set on Myzus persicae [5], 0%; with Nilaparvata lugens [6], 90%; in the data set on Nilaparvata lugens [8], 60%. In addition, the mortality at 10 ppm with Nilaparvata lugens [2] came out at 90%; in the data set with Myzus persicae [3] it was 0%; with Nilaparvata lugens [7], 100%. The mortality at 0.1 ppm in the data set on Myzus persicae [4] stood at 0%.

Take `CON1C(=O)C(c2c(C)cc(C)cc2C)=C(O)C1(C)C`: the Phytotoxicity in the data set with Cucumis sativus turned out to be 60%; with Oryza sativa, 100%. The mortality at 1 ppm was found to be 0% in the data set with Myzus persicae [1], 100% with Myzus persicae [5], 30% with Nilaparvata lugens [6] and 100% in the data set on Nilaparvata lugens [8]. For the same compound, the mortality at 10 ppm with Nilaparvata lugens [2] is 100%; in the data set with Myzus persicae [3], 60%; with Nilaparvata lugens [7], 90%. Further, the mortality at 0.1 ppm in the data set on Myzus persicae [4] was 0%.

On to `CON1C(=O)C(c2c(C)cc(C)cc2C)=C(OC(=O)CC(C)(C)C)C1(C)C`, for which the Phytotoxicity in the data set with Cucumis sativus amounted to 60%; in the data set on Oryza sativa, 30%. Also, the mortality at 1 ppm with Myzus persicae [1] amounted to 0%; with Myzus persicae [5] it was 0%; in the data set on Nilaparvata lugens [6], 90%; with Nilaparvata lugens [8], 30%. Further, the mortality at 10 ppm with Nilaparvata lugens [2] came to 90%; with Myzus persicae [3], 30%; in the data set on Nilaparvata lugens [7] it was 90%. For the same compound, the mortality at 0.1 ppm with Myzus persicae [4] is 0%.

With `CCON1C(=O)C(c2c(C)cc(C)cc2C)=C(O)C1(C)C`, the Phytotoxicity in the data set with Cucumis sativus was 0%; in the data set on Oryza sativa, 100%. Besides, the mortality at 1 ppm worked out at 0% in the data set on Myzus persicae [1], 100% in the data set on Myzus persicae [5], 60% with Nilaparvata lugens [6] and 60% with Nilaparvata lugens [8]. The figures for the mortality at 10 ppm in the data set on Nilaparvata lugens [2], with Myzus persicae [3] and in the data set on Nilaparvata lugens [7] were 90%, 0% and 100%, respectively. Also, in the data set with Myzus persicae [4], the mortality at 0.1 ppm was found to be 60%.
